Measured values published in PubChem BioAssay (NCI).
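The compound was tested at five concentrations on cells cultured in 96-well plates, with a 48-hour exposure period. TGI marks complete inhibition of growth.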

What was measured:
Assay in all cases: growth of human tumour cells (NCI), 48 h
SK-MEL-2 melanoma = system: SK-MEL-2 melanoma
SN12C renal = system: SN12C renal
MDA-MB-435 = system: MDA-MB-435
BT-549 breast = system: BT-549 breast
MCF7 breast = system: MCF7 breast
T-47D breast = system: T-47D breast
OVCAR-3 ovarian = system: OVCAR-3 ovarian
NCI/ADR-RES ovarian = system: NCI/ADR-RES ovarian
PC-3 prostate = system: PC-3 prostate
HT29 colon = system: HT29 colon
SF-539 CNS = system: SF-539 CNS
UACC-257 melanoma = system: UACC-257 melanoma
HOP-62 NSCLC = system: HOP-62 NSCLC
CCRF-CEM leukemia = system: CCRF-CEM leukemia
OVCAR-5 ovarian = system: OVCAR-5 ovarian
NCI-H460 lung = system: NCI-H460 lung
LOX IMVI melanoma = system: LOX IMVI melanoma
MDA-N = system: MDA-N
RPMI-8226 leukemia = system: RPMI-8226 leukemia
SR leukemia = system: SR leukemia
MDA-MB-231 breast = system: MDA-MB-231 breast
EKVX NSCLC = system: EKVX NSCLC
SK-MEL-28 melanoma = system: SK-MEL-28 melanoma
KM12 colon = system: KM12 colon
786-0 renal = system: 786-0 renal
MOLT-4 leukemia = system: MOLT-4 leukemia
TK-10 renal = system: TK-10 renal
NCI-H23 lung = system: NCI-H23 lung
HL-60(TB) leukemia = system: HL-60(TB) leukemia
HCT-15 colon = system: HCT-15 colon
HS 578T breast = system: HS 578T breast
OVCAR-8 ovarian = system: OVCAR-8 ovarian
UO-31 renal = system: UO-31 renal
A549 NSCLC = system: A549 NSCLC
SF-295 CNS = system: SF-295 CNS
CAKI-1 renal = system: CAKI-1 renal
U251 CNS = system: U251 CNS
COLO 205 colon = system: COLO 205 colon
MALME-3M melanoma = system: MALME-3M melanoma
SF-268 CNS = system: SF-268 CNS
A498 renal = system: A498 renal
RXF 393 renal = system: RXF 393 renal
SNB-19 CNS = system: SNB-19 CNS
ACHN renal = system: ACHN renal
SK-OV-3 ovarian = system: SK-OV-3 ovarian
DU-145 prostate = system: DU-145 prostate
NCI-H522 lung = system: NCI-H522 lung
HCT-116 colon = system: HCT-116 colon
UACC-62 melanoma = system: UACC-62 melanoma
OVCAR-4 ovarian = system: OVCAR-4 ovarian
K-562 leukemia = system: K-562 leukemia
IGROV1 ovarian = system: IGROV1 ovarian
SW-620 colon = system: SW-620 colon
SK-MEL-5 melanoma = system: SK-MEL-5 melanoma
HCC-2998 colon = system: HCC-2998 colon
HOP-92 NSCLC = system: HOP-92 NSCLC
M14 melanoma = system: M14 melanoma
NCI-H226 lung = system: NCI-H226 lung
SNB-75 CNS = system: SNB-75 CNS

Measured: TGI

CC(C)(C)c1ccc(C(C)(C)C)c(N2C(=O)[C@@H]3[C@@H]4C=C[C@@H](C4)[C@]3(C)C2=O)c1
32.2 µM: RXF 393 renal
53.1 µM: SK-MEL-2 melanoma
52.5 µM: U251 CNS
39.9 µM: SR leukemia | IGROV1 ovarian
74.4 µM: UACC-257 melanoma
72.6 µM: PC-3 prostate
53 µM: OVCAR-3 ovarian | MALME-3M melanoma
52.3 µM: SN12C renal
49.1 µM: RPMI-8226 leukemia
53.5 µM: DU-145 prostate
57.7 µM: BT-549 breast
33.4 µM: OVCAR-8 ovarian
9.64 µM: HOP-92 NSCLC
42.9 µM: HCT-15 colon
32.4 µM: MDA-MB-435
51.3 µM: M14 melanoma
31.9 µM: MDA-N
69.8 µM: A498 renal
82.6 µM: T-47D breast
40.4 µM: HL-60(TB) leukemia
40.9 µM: HCT-116 colon
29.1 µM: HCC-2998 colon
26.8 µM: LOX IMVI melanoma
32 µM: CCRF-CEM leukemia
40.2 µM: 786-0 renal
62.6 µM: SW-620 colon
47.4 µM: NCI-H522 lung
59.9 µM: HS 578T breast
61 µM: MOLT-4 leukemia
26.7 µM: OVCAR-4 ovarian
74 µM: SF-268 CNS
46.7 µM: UACC-62 melanoma
not listed: SNB-75 CNS
> 100 µM: all other assays above

CN(C)CCCNC(=O)c1cc2/c(=C\c3ccc(N(C)C)cc3)c3ccccc3n2[n+]1C
39.7 µM: EKVX NSCLC
13.5 µM: SN12C renal
35.4 µM: K-562 leukemia
64.2 µM: HCT-116 colon
51.3 µM: UACC-257 melanoma
21.4 µM: OVCAR-4 ovarian
78.4 µM: MDA-N
54.1 µM: SR leukemia
10.9 µM: NCI-H522 lung
74.8 µM: SK-MEL-28 melanoma
34 µM: UACC-62 melanoma
58.7 µM: MDA-MB-435
37.1 µM: IGROV1 ovarian
90.9 µM: SF-268 CNS
39.4 µM: SF-539 CNS
35.6 µM: SK-MEL-2 melanoma
82.8 µM: HT29 colon
59.5 µM: NCI-H23 lung
69.2 µM: U251 CNS
38.4 µM: MALME-3M melanoma
64.4 µM: MDA-MB-231 breast
56.4 µM: HOP-92 NSCLC
61.6 µM: KM12 colon
39 µM: M14 melanoma
52.2 µM: OVCAR-3 ovarian
15.9 µM: T-47D breast
90.1 µM: CCRF-CEM leukemia
21.3 µM: COLO 205 colon
50.7 µM: MCF7 breast
46 µM: HL-60(TB) leukemia
31.3 µM: SK-MEL-5 melanoma
53.6 µM: RPMI-8226 leukemia
not listed: HCC-2998 colon | NCI-H226 lung | SNB-75 CNS
> 100 µM: all other assays above

C1CSC(Sc2nc(SC3=NCCS3)nc(SC3=NCCS3)n2)=N1
not listed: SNB-75 CNS
> 100 µM: all other assays above

Cn1c(-c2ccccc2)cc(-c2ccsc2)c1-c1ccsc1
not listed: MALME-3M melanoma | NCI-H522 lung
> 100 µM: all other assays above

CC(=O)NCCC1CNc2ccccc21 (stereo not given)
not listed: HOP-62 NSCLC | 786-0 renal | SNB-75 CNS
> 100 µM: all other assays above
